Laboratory results taken from ChEMBL document CHEMBL1201862, “PubChem BioAssay data set” (2004).
Active and inactive are the calls of the source.

Legend:
[1] = A Cell Based Secondary Assay To Explore Cytotoxicity of Compounds that Sensitize Mycobacterium Tuberculosis to Beta-Lactam Antibiotics.; format: functional
[2] = target: Acyl-homoserine lactone acylase PvdQ (Pseudomonas aeruginosa (strain LESB58), UniProt Q9I194); experiment: PvdQ acylase enzyme activity blockers – biochemical, fluorescence, plate reader and imaging, cherry-picks, dose response (AID 493231)
[3] = A549 cell cytotoxicity, dose response, cytotoxicity control, plate reader, cherry-pick, antagonist series (AID 743412); format: functional, cell-based
[4] = toxicity toward HepG2 liver cells – cell-based, plate reader, cherry-pick, antagonist series, cytotoxicity control, dose response (AID 743416); format: functional
[5] = blockers of bursicon-stimulated LGR2 cAMP reporter – cell-based, HEK293, CRE-luciferase reporter, cherry pick, set 2, dose response (AID 743343); format: functional;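 further: transfected cells were stimulated with diluted bursicon conditioned medium after compound addition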
[6] = blockade of melanocortin 4 receptor signaling – cell-based, plate reader, cherry pick, counter-screen for LGR2 antagonist project, dose response (AID 743444); format: functional;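 further: transfected HEK 293 cells stimulated with alpha-MSH peptide; potency of inhibitors of the alpha-MSH evoked signal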
[7] = viability loss in HEK293 cells – cell-based, plate reader, cherry-picked samples, cytotoxicity control, dose response (AID 743446); format: functional
[8] = target: T1, Voltage-gated N-type calcium channel alpha-1B subunit/Amyloid beta A4 precursor protein-binding family A member 1 (Homo sapiens, UniProt Q00975+Q02410); experiment: disruptors of Mint-PDZ/N-type channel peptide interaction – biochemical, HTRF, set 2, SAR follow-up (AID 434980); format: functional
T1 sequence (Q00975 whole entry): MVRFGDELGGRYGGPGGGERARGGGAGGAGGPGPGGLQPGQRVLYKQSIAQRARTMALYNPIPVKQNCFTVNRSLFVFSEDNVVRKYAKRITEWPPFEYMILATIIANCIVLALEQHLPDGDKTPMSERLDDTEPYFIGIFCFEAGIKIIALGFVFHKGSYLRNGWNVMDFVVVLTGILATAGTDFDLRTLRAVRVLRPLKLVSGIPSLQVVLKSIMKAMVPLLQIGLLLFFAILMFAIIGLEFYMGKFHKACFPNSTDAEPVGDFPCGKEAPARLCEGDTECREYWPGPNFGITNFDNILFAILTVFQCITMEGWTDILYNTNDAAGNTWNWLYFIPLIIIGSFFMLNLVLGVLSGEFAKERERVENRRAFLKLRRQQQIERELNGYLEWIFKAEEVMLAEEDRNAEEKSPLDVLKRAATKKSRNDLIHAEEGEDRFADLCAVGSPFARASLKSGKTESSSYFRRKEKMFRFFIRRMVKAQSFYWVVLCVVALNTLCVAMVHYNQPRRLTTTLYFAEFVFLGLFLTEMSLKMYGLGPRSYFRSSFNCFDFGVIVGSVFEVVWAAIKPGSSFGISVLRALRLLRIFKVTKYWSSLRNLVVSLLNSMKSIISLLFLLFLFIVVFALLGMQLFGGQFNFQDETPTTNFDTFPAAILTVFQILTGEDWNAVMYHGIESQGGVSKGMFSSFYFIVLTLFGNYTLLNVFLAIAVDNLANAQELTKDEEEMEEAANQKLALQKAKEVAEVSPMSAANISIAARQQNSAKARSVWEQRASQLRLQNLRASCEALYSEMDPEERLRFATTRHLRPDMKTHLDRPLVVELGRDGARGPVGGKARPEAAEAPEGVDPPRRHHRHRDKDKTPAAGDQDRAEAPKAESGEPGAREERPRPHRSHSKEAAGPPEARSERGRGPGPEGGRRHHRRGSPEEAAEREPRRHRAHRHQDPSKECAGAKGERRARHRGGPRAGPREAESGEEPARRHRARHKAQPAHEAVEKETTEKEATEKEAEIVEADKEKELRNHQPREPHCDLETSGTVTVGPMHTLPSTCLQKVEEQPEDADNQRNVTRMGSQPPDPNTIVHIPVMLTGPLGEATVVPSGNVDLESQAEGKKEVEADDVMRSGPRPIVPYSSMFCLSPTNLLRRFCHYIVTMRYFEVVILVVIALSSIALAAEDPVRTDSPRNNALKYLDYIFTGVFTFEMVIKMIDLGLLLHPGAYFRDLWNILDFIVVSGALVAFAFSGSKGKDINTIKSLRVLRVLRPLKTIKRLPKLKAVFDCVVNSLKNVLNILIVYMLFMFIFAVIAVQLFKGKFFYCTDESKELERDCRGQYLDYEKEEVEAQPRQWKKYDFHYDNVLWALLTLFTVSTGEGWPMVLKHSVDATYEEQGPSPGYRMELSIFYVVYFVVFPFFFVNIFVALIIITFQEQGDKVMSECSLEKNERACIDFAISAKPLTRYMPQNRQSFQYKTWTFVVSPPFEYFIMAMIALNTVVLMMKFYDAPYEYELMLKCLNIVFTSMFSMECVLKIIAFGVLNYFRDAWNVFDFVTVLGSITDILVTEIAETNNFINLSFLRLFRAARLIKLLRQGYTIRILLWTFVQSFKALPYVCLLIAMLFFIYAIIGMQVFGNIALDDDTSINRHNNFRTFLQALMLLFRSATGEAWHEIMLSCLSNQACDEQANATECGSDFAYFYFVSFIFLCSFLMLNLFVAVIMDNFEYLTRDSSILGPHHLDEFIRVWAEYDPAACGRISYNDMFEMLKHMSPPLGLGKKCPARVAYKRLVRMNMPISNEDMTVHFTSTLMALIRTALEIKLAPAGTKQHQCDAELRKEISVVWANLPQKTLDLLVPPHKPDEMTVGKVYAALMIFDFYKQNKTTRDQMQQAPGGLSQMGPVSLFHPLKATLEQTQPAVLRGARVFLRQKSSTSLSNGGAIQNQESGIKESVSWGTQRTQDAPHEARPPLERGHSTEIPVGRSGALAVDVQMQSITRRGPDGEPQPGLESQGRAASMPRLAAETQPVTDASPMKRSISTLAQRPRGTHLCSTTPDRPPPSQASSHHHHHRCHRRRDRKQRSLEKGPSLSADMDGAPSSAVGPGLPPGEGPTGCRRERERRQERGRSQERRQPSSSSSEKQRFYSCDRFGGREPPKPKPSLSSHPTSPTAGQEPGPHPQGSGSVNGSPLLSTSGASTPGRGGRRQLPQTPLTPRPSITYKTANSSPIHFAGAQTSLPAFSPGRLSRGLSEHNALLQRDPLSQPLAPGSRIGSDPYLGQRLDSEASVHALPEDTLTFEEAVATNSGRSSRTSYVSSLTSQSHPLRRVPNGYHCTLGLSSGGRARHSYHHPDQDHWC
T1 sequence (Q02410 whole entry): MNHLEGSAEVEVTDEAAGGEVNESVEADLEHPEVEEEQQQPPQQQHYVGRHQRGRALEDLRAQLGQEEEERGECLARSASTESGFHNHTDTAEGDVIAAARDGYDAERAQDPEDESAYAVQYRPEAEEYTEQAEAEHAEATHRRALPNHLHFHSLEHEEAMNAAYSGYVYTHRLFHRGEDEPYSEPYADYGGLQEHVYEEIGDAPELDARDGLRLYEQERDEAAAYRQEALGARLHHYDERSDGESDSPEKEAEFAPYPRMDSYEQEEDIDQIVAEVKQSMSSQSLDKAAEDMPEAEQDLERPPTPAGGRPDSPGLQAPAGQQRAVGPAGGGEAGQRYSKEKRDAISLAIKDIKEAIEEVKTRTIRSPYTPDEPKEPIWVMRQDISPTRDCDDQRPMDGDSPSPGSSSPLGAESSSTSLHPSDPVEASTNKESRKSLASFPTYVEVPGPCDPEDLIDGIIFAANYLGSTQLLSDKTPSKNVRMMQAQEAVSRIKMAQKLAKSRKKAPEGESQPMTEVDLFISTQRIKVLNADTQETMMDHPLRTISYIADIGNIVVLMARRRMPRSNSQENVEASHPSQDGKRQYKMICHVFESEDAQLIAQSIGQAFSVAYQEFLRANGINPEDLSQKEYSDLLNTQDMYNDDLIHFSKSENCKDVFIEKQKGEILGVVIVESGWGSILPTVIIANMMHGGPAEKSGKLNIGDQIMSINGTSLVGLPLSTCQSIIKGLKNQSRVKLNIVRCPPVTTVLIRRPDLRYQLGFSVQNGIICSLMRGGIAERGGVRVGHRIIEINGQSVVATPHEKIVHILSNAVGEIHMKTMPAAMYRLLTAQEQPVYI

[9] = target: T1, Voltage-gated N-type calcium channel alpha-1B subunit/Amyloid beta A4 precursor protein-binding family A member 1; experiment: disruptors of Mint-PDZ/N-type channel peptide interaction – biochemical, HTRF, SAR follow-up (AID 2489); format: functional
[10] = BJeHLT cell viability loss – BJeHLT cells, dry powder, counter-screen for Ras selective lethality project, dose response (AID 493052); format: functional, cell-based; conditions: Homo sapiens
[11] = BJeH cell viability loss – BJeH cells, dry powder, counter-screen for Ras selective lethality project, dose response (AID 493054); format: functional, cell-based
[12] = target: Melanin-concentrating hormone receptor 1 (Homo sapiens, UniProt Q99705); experiment: Late-stage fluorescence-based counterscreen for antagonists of the G-protein coupled receptor 7 (GPR7): cell-based dose response assay to identify antagonists of the melanin-concentrating hormone receptor 1 (MCHR1). [Related pubchem assays (depositor defined):AID1861, AID1880, AID1952, AID2148, AID2251, AID2257, AID485339]; format: functional;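 further: stimulated with 30 nM MCH peptide agonist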
[13] = target: Neuropeptides B/W receptor type 1 (Homo sapiens, UniProt P48145); experiment: human NPBW1 receptor blockade, IC50 – cell-based, fluorescence, dose response, late-stage follow-up (AID 463251); format: functional
Sequence of Neuropeptides B/W receptor type 1 (P48145 whole entry): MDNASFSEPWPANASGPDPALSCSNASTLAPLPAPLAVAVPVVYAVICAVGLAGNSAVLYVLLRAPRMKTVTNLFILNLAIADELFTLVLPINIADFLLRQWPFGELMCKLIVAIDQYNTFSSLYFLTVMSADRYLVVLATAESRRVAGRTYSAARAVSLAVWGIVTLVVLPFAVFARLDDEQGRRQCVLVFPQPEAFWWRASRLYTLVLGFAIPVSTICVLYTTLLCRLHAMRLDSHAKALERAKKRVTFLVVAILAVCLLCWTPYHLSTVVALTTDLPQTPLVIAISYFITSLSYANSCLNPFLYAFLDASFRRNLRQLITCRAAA

[14] = target: Kappa-type opioid receptor (Homo sapiens, UniProt P41145); experiment: SAR analysis of small molecule agonists of the kappa opioid receptor via a luminescent beta-arrestin assay - Set 2. [Related pubchem assays (depositor defined):AID1777, AID1785, AID1786, AID1966, AID2133, AID2136, AID2284, AID449737]; format: functional
Sequence of Kappa-type opioid receptor (P41145 whole entry): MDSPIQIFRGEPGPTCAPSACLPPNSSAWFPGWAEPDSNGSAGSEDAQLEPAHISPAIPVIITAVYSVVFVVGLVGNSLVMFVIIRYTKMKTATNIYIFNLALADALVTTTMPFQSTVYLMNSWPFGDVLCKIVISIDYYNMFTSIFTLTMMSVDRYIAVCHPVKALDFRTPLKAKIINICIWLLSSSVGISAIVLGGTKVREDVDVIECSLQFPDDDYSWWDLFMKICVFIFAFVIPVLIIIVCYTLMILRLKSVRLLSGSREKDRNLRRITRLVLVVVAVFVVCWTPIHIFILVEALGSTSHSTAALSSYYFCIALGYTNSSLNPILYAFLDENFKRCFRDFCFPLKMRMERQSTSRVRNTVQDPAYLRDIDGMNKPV

Wee1-like protein kinase = Wee1-like protein kinase (Homo sapiens, UniProt P30291); experiment: HeLa cell cycle G2/M accumulation – FACS, mechanism study for Wee1 degradation inhibitor project, late-stage follow-up, panel member Wee1 Degradation (AID 2088)
Sequence of Wee1-like protein kinase (P30291 whole entry): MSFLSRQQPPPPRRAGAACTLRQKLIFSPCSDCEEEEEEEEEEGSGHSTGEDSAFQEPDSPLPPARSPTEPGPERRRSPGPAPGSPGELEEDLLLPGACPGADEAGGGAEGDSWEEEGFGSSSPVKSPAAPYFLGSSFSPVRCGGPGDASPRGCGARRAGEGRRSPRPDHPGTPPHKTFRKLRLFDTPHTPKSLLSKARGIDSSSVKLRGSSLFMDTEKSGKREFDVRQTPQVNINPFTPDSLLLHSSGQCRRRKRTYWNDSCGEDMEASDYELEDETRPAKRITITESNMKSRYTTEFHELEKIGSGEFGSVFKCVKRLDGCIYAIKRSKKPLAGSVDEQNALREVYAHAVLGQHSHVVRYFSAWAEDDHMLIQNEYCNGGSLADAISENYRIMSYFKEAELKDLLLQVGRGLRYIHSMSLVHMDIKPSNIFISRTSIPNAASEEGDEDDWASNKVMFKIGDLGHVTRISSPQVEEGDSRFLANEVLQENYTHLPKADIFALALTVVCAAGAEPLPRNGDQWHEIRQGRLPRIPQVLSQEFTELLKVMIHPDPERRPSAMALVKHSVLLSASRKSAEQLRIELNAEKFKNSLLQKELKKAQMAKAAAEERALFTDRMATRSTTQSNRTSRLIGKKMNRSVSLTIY

[15] = target: G2/mitotic-specific cyclin-B1 (Homo sapiens, UniProt P14635); experiment: HeLa cell cycle G2/M accumulation – FACS, mechanism study for Wee1 degradation inhibitor project, late-stage follow-up, panel member Cyclin B Degradation (AID 2088)
Sequence of G2/mitotic-specific cyclin-B1 (P14635 whole entry): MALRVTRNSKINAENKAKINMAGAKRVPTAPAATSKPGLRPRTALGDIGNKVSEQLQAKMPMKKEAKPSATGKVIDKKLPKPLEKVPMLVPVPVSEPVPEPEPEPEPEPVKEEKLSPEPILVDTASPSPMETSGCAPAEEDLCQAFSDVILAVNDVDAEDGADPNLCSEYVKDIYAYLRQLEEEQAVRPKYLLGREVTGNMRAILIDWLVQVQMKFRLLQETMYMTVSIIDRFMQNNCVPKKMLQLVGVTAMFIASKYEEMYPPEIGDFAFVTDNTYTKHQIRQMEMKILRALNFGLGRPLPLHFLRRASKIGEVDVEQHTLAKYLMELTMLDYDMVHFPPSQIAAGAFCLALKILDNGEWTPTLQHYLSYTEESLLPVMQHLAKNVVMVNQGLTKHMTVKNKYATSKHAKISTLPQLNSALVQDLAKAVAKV

[16] = target: Lysosomal acid glucosylceramidase (Homo sapiens, UniProt P04062); experiment: Dose response cell-based high throughput screening assay to identify enhancers of beta-glucosidase activity. [Related pubchem assays: 784 ]; format: functional
[17] = target: Mitogen-activated protein kinase 10 (Homo sapiens, UniProt P53779); experiment: Dose response biochemical screening assay for inhibitors of c-Jun N-Terminal Kinase 3 (JNK3). [Related pubchem assays: 746 ]
[18] = mRNA 3' processing disruption, beta-gal signal increase – luminescence, S. cerevisiae SKY197-pL101, dose response (AID 2525); format: functional, cell-based

Q: For `COc1ccc2c(c1)c(C(C)=O)c(C)n2-c1ccccc1`, which CC50 [1] is on record?
A: Its CC50 is > 40 µM (active).

Q: For `CCOc1ccc(-c2cn3ccccc3n2)cc1`, which AC50 [2] is on record?
A: Its AC50 is 92.1 µM (active).

Q: What about the AC50 [3] of the same molecule?
A: The AC50 was > 52 µM (inactive).

Q: What about the AC50 [4] of the same molecule?
A: The AC50 was > 52 µM (inactive).

Q: And the AC50 [5]?
A: The AC50 was 5.05 µM (active).

Q: And the AC50 [6]?
A: The AC50 was 4.5 µM (active).

Q: What about the AC50 [7] of the same molecule?
A: Its AC50 is > 52 µM (inactive).

Q: For `COc1cccc(CCNC(=O)c2cc(-c3ccco3)nc3ccccc23)c1`, which IC50 [8] is on record?
A: The IC50 was > 56.8 µM (inactive).

Q: What about the IC50 [9] of the same molecule?
A: The IC50 was > 56.8 µM (inactive).

Q: For `COc1ccc(N(C(=O)[C@@H](C)Cl)C(C(=O)NCCc2ccccc2)c2cccs2)cc1Cl` (some centres undefined), which AC50 [10] is on record?
A: The AC50 was > 454 µM (inactive).

Q: What about the AC50 [11] of the same molecule?
A: Its AC50 is > 454 µM (inactive).

Q: Which results are given for `CC(C)c1ccc(-n2ncc(Cl)c(Oc3ccc(N)cc3)c2=O)cc1`?
A: IC50 [12]: 7 µM (active); IC50 [13]: 2.5 µM (active)

Q: For `O=C(CN(Cc1cccs1)C(=O)c1ccccn1)NC1CCCCCC1`, which EC50 [14] is on record?
A: The EC50 was > 20 µM (inactive).

Q: With `CCc1ccc(NC(=O)CCCOc2cc(=O)n(C)c3ccccc23)cc1` as the molecule, how does the EC50 (Wee1-like protein kinase) read?
A: The EC50 was > 49.7 µM (inactive).

Q: And the EC50 [15]?
A: Its EC50 is > 49.7 µM (inactive).

Q: For `Cc1ccnc(Nc2nc(-c3c(C)nc4sccn34)cs2)c1`, which EC50 [16] is on record?
A: Its EC50 is > 50 µM (not active).

Q: And the IC50 [17]?
A: Its IC50 is > 93.1 µM (not active).

Q: For `CCN1/C(=C/C=C/c2sc3ccccc3[n+]2CC)Sc2ccccc21` [ALAZANINE], which EC50 [18] is on record?
A: The EC50 was 243 µM (active).
